Common to all, as to assay: inhibition of tumour cell growth, NCI panel, 48 h
Test [1] concerns ACHN renal.
The subject of test [2] is NCI-H226 lung.
Test [3] has as its system OVCAR-3 ovarian.
The test system of test [4] is IGROV1 ovarian.
The test system of test [5] is HCC-2998 colon.
Test [6] relates to U251 CNS.
Test [7] has as its system SF-539 CNS.
Test [8] deals with CAKI-1 renal.
In test [9] the test system is T-47D breast.
For test [10], the system named is NCI-H522 lung.

Molecules are shown by their SMILES. “And” between values parts separate entries of the source, which are not always exact repeats. Equal entries are not always repeated.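 Tested at 5 concentrations; 48 h exposure; 96-well plates; endpoints linearly interpolated, else capped at highest concentration. GI50 is the concentration that inhibits growth by half. TGI: total growth inhibition.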

For `CC1=CCCC2C1(C)CCC(C)C2(C)Cc1cc(O)ccc1O` (stereo unspecified), the TGI in [1] was 25.6 µM; in test [2], 27.2 µM and 15.8 µM; in test [3] it was 22.2 µM and 19.3 µM; in test [4], 16.6 µM and 21.6 µM; in [5] it was 30 µM and 24.6 µM; in test [6] it was 15.4 µM and 16.5 µM. Also, the TGI in [7] is 26.3 µM and 23.6 µM; in test [8], 27.2 µM and 22.5 µM; in [9], 27.3 µM; in test [10], 12.7 µM and 8.37 µM. The GI50 in [2] is 5.5 µM; in test [3], 9.97 µM; in test [4], 4.22 µM; in [5], 15.6 µM; in test [7] it was 11.1 µM; in [8] it was 14.1 µM. Besides, in [10], the GI50 was 3.65 µM.

Turning to `C[C@]12CC[C@@H]3c4cc(O)c(O)cc4CC[C@H]3[C@@H]1CC[C@@H]2O`, the GI50 was 8.94 µM in test [1]; 26.8 µM in test [2]; 2.77 µM in test [3]; 11 µM in [4]; 11.2 µM in test [5]; 6.86 µM in test [6]. Also, the GI50 is 1.64 µM in test [7], 3.83 µM in [8], 7.73 µM in test [9] and 0.987 µM in test [10]. Besides, the TGI in [1] is 54.5 µM; in test [2], more than 100 µM; in [3] it was more than 31.3 µM; in [4], more than 91.3 µM; in test [5] it was 41.8 µM; in test [6], 35.1 µM. Further, the TGI in test [7] was 5.45 µM; in [8], more than 88.9 µM; in test [9], 27.7 µM; in [10], 3.83 µM.

In the case of `C[C@@H]1CCC([C@@H](C)[C@H]2CC[C@H]3[C@@H]4CC[C@H]5C[C@@H](O)CC[C@]5(C)[C@H]4CC[C@]23C)=NC1`, the TGI is more than 61.5 µM in test [1]; more than 100 µM in [2]; more than 100 µM in test [3]; more than 100 µM in test [4]; 55.4 µM in [5]; more than 86.4 µM in [6]. Further, the TGI is more than 100 µM in test [7], 66.6 µM in test [8], more than 61.9 µM in test [9] and 30.7 µM in test [10].

Regarding `COC(=O)C1=CO[C@@H](OC2OC(CO)C(O)C(O)C2O)[C@H]2[C@@H](C)[C@@H](O)[C@@H](O)[C@@H]12` (stereo partly specified), the TGI in test [1], in test [2], in [3], in test [4], in test [5] and in test [6] was more than 100 µM throughout. Further, the TGI in test [7], in test [8], in test [9] and in [10] was more than 100 µM throughout.

Take `N=C(N)SCc1c2ccccc2c(CSC(=N)N)c2ccccc12`: the GI50 in [1] was 3.99 µM; in [2], 6.44 µM; in [3], 12.4 µM; in test [4], 18.2 µM; in [5], 11.3 µM; in [6] it was 3.13 µM. The GI50 in test [7] was 5.11 µM; in test [8], 7.28 µM; in test [9], 3.97 µM; in test [10] it was 3.23 µM. In addition, the TGI in test [1] stood at 18.5 µM; in test [2], 30.6 µM; in test [3], 30.2 µM; in test [4], 78.4 µM; in [5], 23.7 µM; in test [6], 26.7 µM. Also, the TGI in [7] was determined as 19.4 µM; in test [8], 27.7 µM; in [9], 22.1 µM; in [10], 30.7 µM.

Regarding `CN1CCC2(CC1)NC(=O)c1c(c3ccc(Cl)c(Cl)c3n1C)C2C#N` (stereo unspecified), the GI50 was 5.75 µM in test [1]; 6.52 µM in test [2]; 5.32 µM in test [3]; 2.31 µM in test [4]; 1.89 µM in test [5]; 11.1 µM in [6]. Also, the GI50 in test [7] is 5.51 µM; in [8], 4.31 µM; in [9] it was 5.45 µM; in test [10], 15.2 µM. Also, the TGI in test [1] worked out at 19.4 µM; in test [2], 30.7 µM; in test [3], 12.3 µM; in test [4] it was 7.21 µM; in test [5] it was 3.95 µM; in [6] it was 26.2 µM. Further, the TGI in [7] was found to be 17.9 µM; in test [8], 21.3 µM; in [9], 20.3 µM; in [10], 44.8 µM.

As for `COc1cc2c(cc1Cc1cccc(Cl)c1F)c(=O)c(C(=O)O)cn2[C@@H](CO)C(C)C`, the GI50 is 4.63 µM in test [1]; 5.68 µM in test [2]; 3.32 µM in test [3]; 2.42 µM in test [4]; 3.13 µM in test [5]; 3.17 µM in test [6]. For the same molecule, the GI50 in [7] was 3.39 µM; in test [8] it was 3.28 µM; in test [9], 5.5 µM; in [10], 3.51 µM. Also, the TGI stood at 20.9 µM in test [1]; 23.6 µM in test [2]; 10.9 µM in [3]; 5.61 µM in test [4]; 11.6 µM in test [5]; 12.2 µM in test [6]. For the same molecule, the TGI was 10.7 µM in test [7], 12.7 µM in test [8], 18.3 µM in test [9] and 11.7 µM in test [10].

Consider `Cc1ccc2c(c1)c(Sc1ccc(C(=O)NO)cc1)c1n2CN(C)CC1`, for which the GI50 in [1] is 2.68 µM; in [2] it was 1.83 µM; in [3] it was 1.93 µM; in test [4], 2.23 µM; in test [5], 1.64 µM; in test [6], 1.61 µM. In addition, the GI50 in [7] was 1.4 µM; in [8], 3.87 µM; in test [9] it was 1.53 µM; in test [10] it was 1.16 µM. Also, the TGI in test [1] is 8.63 µM; in test [2], 4.86 µM; in test [3], 5.63 µM; in test [4], 5.46 µM; in [5] it was 3.67 µM; in test [6], 3.42 µM. In addition, the TGI in [7] is 2.92 µM; in [8], 13.9 µM; in test [9], 5.45 µM; in test [10], 2.61 µM.

Turning to `COc1ccc(Cn2cc3c(c2-c2ccccc2)CCc2cnoc2-3)cc1OC`, the GI50 in test [1] is 2.83 µM; in [2], 5.75 µM; in test [3], 0.332 µM; in test [4], 1.59 µM; in test [5], 2.19 µM; in test [6], 0.774 µM. The GI50 in test [7] is 1.02 µM; in test [8] it was 0.537 µM; in test [9], 0.664 µM; in test [10], 0.229 µM. Besides, the TGI in [1] is more than 100 µM; in [2] it was more than 100 µM; in test [3], 0.884 µM; in test [4] it was more than 100 µM; in [5], more than 100 µM; in test [6], more than 100 µM. The TGI in [7] is 5.6 µM; in test [8], more than 100 µM; in test [9], 71.2 µM; in test [10], 0.801 µM.

As to `CCNC(=O)Nc1ccc(Oc2ccnc3ccc4c(ccn4C)c23)cc1`, the GI50 in test [1] was 59.2 µM; in test [2] it was 28.2 µM; in test [3], 19.7 µM; in test [4], more than 100 µM; in test [5], 28.2 µM; in test [6], 20.6 µM. The GI50 is 23.6 µM in [7], 0.236 µM in test [8], 23.2 µM in test [9] and 43.8 µM in test [10]. Moreover, the TGI was more than 100 µM in test [1]; 72.8 µM in test [2]; 42.2 µM in test [3]; more than 100 µM in test [4]; 63.9 µM in test [5]; 44.7 µM in test [6]. Also, the TGI in test [7] is 85.1 µM; in test [8], 0.961 µM; in [9], 62.1 µM; in test [10] it was more than 100 µM.

For the molecule `CC/C(=C(/c1ccc(O)cc1)c1ccc(OCCN)cc1)c1ccccc1`, the GI50 in [1] is 2.4 µM; in test [2] it was 11.6 µM; in [3] it was 2.96 µM; in test [4], 4.62 µM; in test [5], 1.95 µM; in test [6] it was 1.82 µM. The GI50 was 3.73 µM in test [7], 1.64 µM in test [8], 1.67 µM in [9] and 4.26 µM in test [10]. The TGI in test [1] came out at 6.76 µM; in [2] it was 30.7 µM; in [3], 8.01 µM; in [4], 15.5 µM; in [5], 3.72 µM; in test [6] it was 3.86 µM. Also, the TGI in [7] is 8.01 µM; in [8], 4.18 µM; in test [9] it was 5.94 µM; in test [10], 9.36 µM.

With `N#Cc1c(N)n2c(nc1=Nc1ccc(Cl)cc1)sc1cc(Cl)ccc12`, the GI50 in [1] is 9 µM; in [2] it was 6.71 µM and 2.39 µM; in [3], 6.11 µM; in test [4] it was more than 100 µM; in test [5], 2.23 µM; in [6], 6.56 µM. For the same molecule, the GI50 in test [7] is 8.7 µM; in test [8], 22.4 µM; in test [9], more than 100 µM; in test [10] it was 3.74 µM. Moreover, the TGI is more than 100 µM in [1]; 9 µM in [2]; more than 100 µM in test [3]; more than 100 µM in test [4]; 8.94 µM in test [5]; more than 100 µM in [6]. In addition, the TGI in [7], in test [8] and in test [9] was more than 100 µM each time.
